Columns and labels:
[1] = biological target: T1, Prostaglandin G/H synthase 2 (Mus musculus, UniProt Q05769); assay: Tested for prostaglandin E2 production as a function of COX-2 inhibition using endotoxin-treated murine RAW 264.7 macrophages; type: functional
T1 sequence (Q05769 whole entry): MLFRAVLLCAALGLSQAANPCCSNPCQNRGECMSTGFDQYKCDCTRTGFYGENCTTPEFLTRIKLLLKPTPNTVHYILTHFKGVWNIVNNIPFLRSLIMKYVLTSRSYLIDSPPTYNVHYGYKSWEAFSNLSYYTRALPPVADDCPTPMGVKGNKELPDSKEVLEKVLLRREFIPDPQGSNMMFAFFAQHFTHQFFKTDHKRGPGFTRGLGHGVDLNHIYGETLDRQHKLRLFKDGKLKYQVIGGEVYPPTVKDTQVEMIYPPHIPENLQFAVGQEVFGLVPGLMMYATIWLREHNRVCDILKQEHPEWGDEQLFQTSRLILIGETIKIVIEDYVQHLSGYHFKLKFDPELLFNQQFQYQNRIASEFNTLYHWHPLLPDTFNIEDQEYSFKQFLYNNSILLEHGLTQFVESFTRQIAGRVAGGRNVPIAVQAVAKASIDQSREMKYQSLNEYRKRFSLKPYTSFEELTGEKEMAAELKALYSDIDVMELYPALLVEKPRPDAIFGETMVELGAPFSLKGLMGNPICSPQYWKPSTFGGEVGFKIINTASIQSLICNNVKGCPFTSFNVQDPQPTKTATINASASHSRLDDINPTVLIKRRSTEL

[2] = biological target: T2, Prostaglandin G/H synthase 2 (Homo sapiens, UniProt P35354)
T2 sequence (P35354 whole entry): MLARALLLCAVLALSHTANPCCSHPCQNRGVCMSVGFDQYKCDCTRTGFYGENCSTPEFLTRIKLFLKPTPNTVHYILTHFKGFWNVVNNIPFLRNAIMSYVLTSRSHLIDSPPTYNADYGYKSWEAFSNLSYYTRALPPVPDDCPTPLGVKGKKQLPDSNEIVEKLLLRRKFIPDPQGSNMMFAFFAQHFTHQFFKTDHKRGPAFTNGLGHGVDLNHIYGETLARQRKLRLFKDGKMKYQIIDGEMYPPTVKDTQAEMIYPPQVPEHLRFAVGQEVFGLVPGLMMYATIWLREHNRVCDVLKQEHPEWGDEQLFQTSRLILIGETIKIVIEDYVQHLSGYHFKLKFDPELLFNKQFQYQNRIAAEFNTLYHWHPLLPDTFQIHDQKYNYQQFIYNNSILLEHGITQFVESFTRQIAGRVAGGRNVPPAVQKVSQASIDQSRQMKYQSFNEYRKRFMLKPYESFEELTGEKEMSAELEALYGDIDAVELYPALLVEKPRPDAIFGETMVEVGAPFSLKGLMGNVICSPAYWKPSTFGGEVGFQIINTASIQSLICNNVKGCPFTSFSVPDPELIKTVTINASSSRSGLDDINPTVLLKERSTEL
Description: Inhibitory activity against human recombinant cyclooxygenase 2

SMILES | IC50 [1] | IC50 [2]
NS(=O)(=O)c1ccc(-c2c(-c3ccccc3)noc2CCF)cc1 | 2 nM | 8 nM
Cc1onc(-c2ccccc2)c1-c1ccc(S(N)(=O)=O)c(F)c1 | 2 nM | –
NS(=O)(=O)c1ccc(-c2c(-c3ccccc3)noc2CF)cc1 | 2 nM | –
Cc1onc(-c2ccc(F)cc2)c1-c1ccc(S(N)(=O)=O)cc1 | 2 nM | –
